Patent US8263755B2, “Synthesis of compounds useful as modulators of amyloid-beta production” (Satori Pharmaceuticals, Inc., priority 2006, dated 2012)

Tests used:
amyloid-β (1-42) peptide = experiment: amyloid-β protein profile by immunoprecipitation and mass spectrometry (IP-MS), protocol of Wang et al.; assay type: cell-based; conditions: in vitro
Procedure: (§1) Compounds of the present invention were assayed to determine their effect on the total ration of amyloid-β (1-42) peptide in vitro using an assay protocol substantially similar to that described by Wang et al., J. Biol. Chem. 1996, 50:31894-31902, The Profile of Soluble Amyloid β Protein in Cultured Cell Media, the entirety of which is hereby incorporated herein by reference. This assay quantifies amyloid-β protein using immunoprecipitation and mass spectrometry (IP-MS).

[1] = system: 7W cells (APPwt) and 7PA2 cells (APPV717F); experiment: method of Wang et al. in 7W cells (APPwt) and 7PA2 cells (APPV717F); assay type: cell-based
Procedure: as §1
Compound 6 was also assayed according to the method described in Wang et al., in 7W cells (APPwt) and 7PA2 cells (APPV717F). The APP717 mutations increase the relative amount of amyloid-β (1-42) peptide. In this assay, it was shown that compound 6 reduces amyloid-β (1-42) peptide while increasing amyloid-β (1-39) peptide.

[2] = stability experiments in solution; assay type: physicochemical
Procedure: However, it was stable in slightly acidic solution. Therefore, 2609-165-7 was re-processed on the Luna C8 column using 70% MeOH/30% water containing 0.05% AcOH as eluent to give 3.4 mg of compound 6 (2609-172-11).

For `CC(=O)O[C@@H]([C@H]1C[C@@H](C)C2=C(O1)[C@H](O)[C@@]1(C)[C@@H]3CC[C@H]4C(C)(C)[C@@H](O[C@@H]5OC[C@@H](O)[C@H](O)[C@H]5O)CC[C@@]45C[C@@]35CC[C@]21C)C(C)(C)O` [Compound 6, 24-O-Acetylhydroshengmanol 3-β-D-xylopyranoside (delta-16,17)-enol ether], the “effect on amyloid-β (1-37) peptide” value (amyloid-β (1-42) peptide) was “increasing”, the “effect on amyloid-β (1-39) peptide” value (amyloid-β (1-42) peptide) was “increasing” and the “effect on amyloid-β (1-42) peptide” value (amyloid-β (1-42) peptide) was “reduced”. For the same compound, the “effect on amyloid-β (1-39) peptide” value [1] was “increasing”, the “effect on amyloid-β (1-42) peptide” value [1] was “reduces” and the stability in solution ([2]; MeOH solution which is slightly basic) was “deacetylation occurred”. For the same compound, the stability in solution ([2]; slightly acidic solution) was “stable”.
